Experimental data as given in patent US20100098689A1, “4-1 bb ligand in inflammatory diseases” (The Scripps Research Institute, priority 2006, published 2010).
Peptide text beside a SMILES is read from it. * marks the point of attachment. Cbz = O=C(OCc1ccccc1)*

Tests used:
Assay type in all cases: cell-based, mouse
4-1BBL mRNA = experiment: Semiquantitative PCR of LPS-induced 4-1BBL mRNA in macrophages; conditions: for LPS-induced 4-1BBL mRNA / 4-1BBL expression: pretreated 1 hour with 20 μM sulfasalazine, 10 μM SB203580, 5 μM SP600125 or 10 μM PD98059, then LPS, MG-132 data not shown
Experimental: (A) Immunoblot of 4-1BBL in lysates from wild-type macrophages and macrophages deficient in TLR4 (TLR4 KO), MyD88 (MyD88 KO) or TRIF (TRIF KO), treated with LPS (time, above lanes). LPS induces quick expression of 4-1BBL in macrophages in a TLR4-, MyD88-, and TRIF-dependent manner. (B) Semiquantitative PCR of 4-1BBL mRNA in wild-type macrophages left without pretreatment (None) or pretreated for 1 hour with inhibitors of NF-κB (20 μM sulfasalazine), p38 (10 μM SB203580), Jnk (5 μM SP600125) or MEK (10 μM PD98059) and then treated with LPS (time, above lanes). […] (C) Real-time RCR analysis of the stability of LPS-induced 4-1BBL mRNA (1 hour of treatment; LPS) or ectopically expressed 4-1BBL mRNA at 18 hour after infection with recombinant adenovirus encoding 4-1BBL (Adv). Actinomycin D was used to inhibit transcription. Values are the percent remaining relative to the value at 0 hour (set at 100%). LPS-induced alterations in mRNA stability were also involved in LPS-induced 4-1BBL expression. (D) Flow cytometry of 4-1BBL expression by wild-type peritoneal macrophages treated with LPS (time, key): right, surface expression; left, total expression in cells made permeable with 0.1% saponin. LPS-induced 4-1BBL is located on the cell surface. (E) Immunofluorescence microscopy of wild-type peritoneal macrophages preincubated for 1 hour with (+) or without (−) brefeldin A (3 μg/mL), then treated with LPS (time, left margin) and immunostained with anti-4-1BBL. Original magnification, ×100. Brefeldin A blocks protein translocation to the cell surface by inhibiting its translocation from the endoplasmic reticulum to the Golgi apparatus. (F) Semiquantitative PCR of 4-1BBL and TNF mRNA in lysates of cells treated as described in E. Brefeldin A neither affected the LPS-induced increase in 4-1BBL mRNA nor influenced LPS-induced TNF mRNA after 1 hour, but did reduce TNF mRNA at 2, 4 and 6 hours. GAPDH (A,B,F): glyceraldehyde phosphate dehydrogenase (loading control). Data are representative of three independent experiments.
Semiquantitative PCR was performed as described by Kim et al., J. Exp. Med. 197:1441-52 (2003). For real-time PCR, 0.5 μg of total RNA were used to prepare cDNA using oligo(dT)12 as a primer. The SYBR green PCR Master Mix kit (Applied Biosystems) was used in the real-time PCR analysis.
To determine whether the newly synthesized 4-1BBL needs to be on the cell surface in order to regulate the expression of TNF, peritoneal macrophages were preincubated with or without brefeldin A (3 μg/mL) for 1 hour and were then treated with LPS for the indicated times. Immunostaining was performed using anti-4-1BBL antibodies. 4-1BBL and TNF mRNA were analyzed by semiquantitative PCR. GAPDH was used as control. Brefeldin A is a specific inhibitor that blocks protein translocation to the cell surface by inhibiting its translocation from the endoplasmic reticulum to the Golgi apparatus Klausner et al., J. Cell Biol. 116:1071-1080 (1992) (FIG. 7E).

TNF mRNA = experiment: Semiquantitative PCR of LPS-induced TNF mRNA in peritoneal macrophages; conditions: preincubated 1 hour with brefeldin A 3 μg/mL
Experimental: (A) Immunoblot of 4-1BBL in lysates from wild-type macrophages and macrophages deficient in TLR4 (TLR4 KO), MyD88 (MyD88 KO) or TRIF (TRIF KO), treated with LPS (time, above lanes). LPS induces quick expression of 4-1BBL in macrophages in a TLR4-, MyD88-, and TRIF-dependent manner. (B) Semiquantitative PCR of 4-1BBL mRNA in wild-type macrophages left without pretreatment (None) or pretreated for 1 hour with inhibitors of NF-κB (20 μM sulfasalazine), p38 (10 μM SB203580), Jnk (5 μM SP600125) or MEK (10 μM PD98059) and then treated with LPS (time, above lanes). […] (C) Real-time RCR analysis of the stability of LPS-induced 4-1BBL mRNA (1 hour of treatment; LPS) or ectopically expressed 4-1BBL mRNA at 18 hour after infection with recombinant adenovirus encoding 4-1BBL (Adv). Actinomycin D was used to inhibit transcription. Values are the percent remaining relative to the value at 0 hour (set at 100%). LPS-induced alterations in mRNA stability were also involved in LPS-induced 4-1BBL expression. […]
To determine whether the newly synthesized 4-1BBL needs to be on the cell surface in order to regulate the expression of TNF, peritoneal macrophages were preincubated with or without brefeldin A (3 μg/mL) for 1 hour and were then treated with LPS for the indicated times. […] 4-1BBL and TNF mRNA were analyzed by semiquantitative PCR. […]

wild-type macrophages = experiment: ELISA of TNF production by macrophages infected with adenovirus expressing 4-1BBL; conditions: inhibitor added 6 h after infection (20 μM sulfasalazine, 10 μM SB203580, 5 μM SP600125, 10 μM PD98059), analyzed 24 hour after infection
Experimental: FIG. 10A-I indicate that two sequential TLR4 complexes exist. (A) Immunoassay of wild-type macrophages treated with LPS (time, above lanes); total cell lysates (Lysates; top) or lysates immunoprecipitated with anti-TLR4, anti-MyD88 or anti-4-1BBL were analyzed by immunoblot with anti-4-1BBL, anti-TLR4 and/or anti-MyD88. Dashed outline, isotype antibody (negative control for immunoprecipitation); solid outlines, positive control for immunoblot of 4-1BBL or MyD88. In LPS-treated macrophages, the MyD88-TLR4 complex is responsible for the initial cellular responses, and the 4-1BBL-TLR4 complex is involved in sustaining TNF production. […] (C) 4-1BBL interacts with TRAF6, but not TRAF2. (D) Knockdown of TRAF6 impaired LPS, PolyI:C, and IL-1β induced cytokine production, but has no effect on TNF-induced IL-6 production. […]

Row | Compound | LPS-induced increase in 4-1BBL mRNA (4-1BBL mRNA; preincubated 1 hour with brefeldin A 3 μg/mL, then LPS) | LPS-induced TNF mRNA at 2, 4, and 6 hours (TNF mRNA; LPS 2, 4, 6 hours) | LPS-induced TNF mRNA after 1 hour (TNF mRNA; LPS 1 hour) | LPS-induced 4-1BBL mRNA / 4-1BBL expression (4-1BBL mRNA) | 4-1BBL-mediated TNF production (wild-type macrophages)
1 | C[C@H]1CCC/C=C/[C@@H]2C[C@H](O)C[C@H]2[C@H](O)/C=C/C(=O)O1 [Brefeldin A] | did not affect | did reduce | did not influence |  | 
2 | CC(C)C[C@@H](C=O)NC(=O)[C@H](CC(C)C)NC(=O)[C@H](CC(C)C)NC(=O)OCc1ccccc1 [MG-132] (Cbz-Leu-Leu-Leu-aldehyde) |  |  |  | effectively inhibited | 
3 | COc1cccc(-c2cc(=O)c3ccccc3o2)c1N [PD98059] |  |  |  | some inhibitory effects | reduced
4 | C[S+]([O-])c1ccc(-c2nc(-c3ccncc3)c(-c3ccc(F)cc3)[nH]2)cc1 (stereo not drawn) [SB203580] |  |  |  | some inhibitory effects | reduced
5 | O=C(O)c1cc(/N=N/c2ccc(S(=O)(=O)Nc3ccccn3)cc2)ccc1O [sulfasalazine] |  |  |  | effectively inhibited | 
